Data published in ChEMBL document CHEMBL1201861, “Genomics of Drug Sensitity in Cancer screening data, Wellcome Trust Sanger Institute”.

Experiments:
Assay in all cases: cells
HGC-27 = assay type: functional, cell-based, Homo sapiens; conditions: Homo sapiens, HGC-27;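 further: growth inhibition of human HGC-27 cells, read out in a cell viability assay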
Description: SANGER: Inhibition of human HGC-27 cell growth in a cell viability assay.

LC-2-ad = assay type: functional, cell-based, Homo sapiens; conditions: Homo sapiens, LC-2-ad;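 further: growth inhibition of human LC-2-ad cells, read out with a cell viability assay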
Description: SANGER: Inhibition of human LC-2-ad cell growth in a cell viability assay.

J82 = assay type: functional, cell-based; conditions: Homo sapiens;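 further: growth inhibition of J82 cells, read out with a cell viability assay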
Description: SANGER: Inhibition of human J82 cell growth in a cell viability assay.

MZ7-mel = assay type: functional, cell-based, Homo sapiens; conditions: Homo sapiens, MZ7-mel;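 further: growth inhibition of human MZ7-mel cells, measured by a cell viability assay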
Description: SANGER: Inhibition of human MZ7-mel cell growth in a cell viability assay.

NTERA-2-cl-D1 = assay type: functional, cell-based, Homo sapiens; conditions: Homo sapiens, NTERA-2-cl-D1;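 further: inhibition of cell growth, measured with a cell viability assay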
Description: SANGER: Inhibition of human NTERA-S-cl-D1 cell growth in a cell viability assay.

ES6 = assay type: functional, cell-based, Homo sapiens; conditions: Homo sapiens, ES6;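 further: growth inhibition of human ES6 cells, read out with a cell viability assay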
Description: SANGER: Inhibition of human ES6 cell growth in a cell viability assay.

SCC-15 = assay type: functional, cell-based, Homo sapiens; conditions: Homo sapiens, SCC-15;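 further: growth inhibition of SCC-15 cells, read out with a cell viability assay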
Description: SANGER: Inhibition of human SCC-15 cell growth in a cell viability assay.

DU-4475 = assay type: functional, cell-based; conditions: Homo sapiens
Description: SANGER: Inhibition of human DU-4475 cell growth in a cell viability assay.

TYK-nu = assay type: functional, cell-based, Homo sapiens; conditions: Homo sapiens, TYK-nu;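 further: growth inhibition of human TYK-nu cells, read out by a cell viability assay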
Description: SANGER: Inhibition of human TYK-nu cell growth in a cell viability assay.

MDA-MB-361 = assay type: functional, cell-based, Homo sapiens; conditions: Homo sapiens, MDA-MB-361
LK-2 = assay type: functional, cell-based, Homo sapiens; conditions: Homo sapiens, LK-2;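 further: growth inhibition of LK-2 cells, read out with a viability assay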
Description: SANGER: Inhibition of human LK-2 cell growth in a cell viability assay.

SW1990 = assay type: functional, cell-based, Homo sapiens; conditions: Homo sapiens, SW1990;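 further: cell growth inhibition determined with a viability assay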
Description: SANGER: Inhibition of human SW1990 cell growth in a cell viability assay.

A-375 = assay type: functional, cell-based, Homo sapiens; conditions: Homo sapiens, A-375;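 further: growth inhibition of A375 cells, read out with a cell viability assay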
Description: SANGER: Inhibition of human A375 cell growth in a cell viability assay.

BV-173 = assay type: functional, cell-based; conditions: Homo sapiens
Description: SANGER: Inhibition of human BV-173 cell growth in a cell viability assay.

NCI-H1648 = assay type: functional, cell-based, Homo sapiens; conditions: Homo sapiens, NCI-H1648;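 further: cell viability assay measuring inhibition of NCI-H1648 cell growth, from the Sanger screening data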
Description: SANGER: Inhibition of human NCI-H1648 cell growth in a cell viability assay.

MZ2-MEL = assay type: functional, cell-based, Homo sapiens; conditions: Homo sapiens, MZ2-MEL;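 further: growth inhibition of MZ2-MEL cells read out with a cell viability assay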
Description: SANGER: Inhibition of human MZ2-MEL cell growth in a cell viability assay.

NCI-H1623 = assay type: functional, cell-based, Homo sapiens; conditions: Homo sapiens, NCI-H1623;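 further: cell viability assay used as the read-out for growth inhibition of NCI-H1623 cells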
Description: SANGER: Inhibition of human NCI-H1623 cell growth in a cell viability assay.

SW-620 = assay type: functional, cell-based, Homo sapiens; conditions: Homo sapiens, SW-620;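 further: growth inhibition of human SW-620 cells, measured by a cell viability assay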
Description: SANGER: Inhibition of human SW620 cell growth in a cell viability assay.

TE-8 = assay type: functional, cell-based, Homo sapiens; conditions: Homo sapiens, TE-8;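 further: growth inhibition of TE-8 cells, measured with a cell viability readout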
Description: SANGER: Inhibition of human TE-8 cell growth in a cell viability assay.

KY821 = assay type: functional, cell-based; conditions: Homo sapiens;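 further: growth inhibition of human KY821 cells, read out by a cell viability assay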
Description: SANGER: Inhibition of human KY821 cell growth in a cell viability assay.

SW1417 = assay type: functional, cell-based, Homo sapiens; conditions: Homo sapiens, SW1417;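 further: growth inhibition of human SW1417 cells, read out with a cell viability assay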
Description: SANGER: Inhibition of human SW1417 cell growth in a cell viability assay.

HL-60 = assay type: functional, cell-based; conditions: Homo sapiens;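 further: growth inhibition of human HL-60 cells, read out with a cell viability assay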
Description: SANGER: Inhibition of human HL-60 cell growth in a cell viability assay.

CAMA-1 = assay type: functional, cell-based, Homo sapiens; conditions: Homo sapiens, CAMA-1;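 further: growth inhibition of CAMA-1 cells, read out with a cell viability assay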
Description: SANGER: Inhibition of human CAMA-1 cell growth in a cell viability assay.

HT-1376 = assay type: functional, cell-based, Homo sapiens; conditions: Homo sapiens, HT-1376
Description: SANGER: Inhibition of human HT-1376 cell growth in a cell viability assay.

DOHH-2 = assay type: functional, cell-based; conditions: Homo sapiens;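 further: growth inhibition of human DOHH-2 cells, read out with a cell viability assay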
Description: SANGER: Inhibition of human DOHH-2 cell growth in a cell viability assay.

VMRC-RCZ = assay type: functional, cell-based; conditions: Homo sapiens;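 further: growth inhibition measured with a cell viability assay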
Description: SANGER: Inhibition of human VMRC-RCZ cell growth in a cell viability assay.

ONS-76 = assay type: functional, cell-based, Homo sapiens; conditions: Homo sapiens, ONS-76;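 further: growth inhibition of human ONS-76 cells, read out with a cell viability assay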
Description: SANGER: Inhibition of human ONS-76 cell growth in a cell viability assay.

LS-411N = assay type: functional, cell-based, Homo sapiens; conditions: Homo sapiens, LS-411N
8-MG-BA = assay type: functional, cell-based, Homo sapiens; conditions: Homo sapiens, 8-MG-BA;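 further: growth inhibition of 8-MG-BA cells, read out with a cell viability assay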
Description: SANGER: Inhibition of human 8-MG-BA cell growth in a cell viability assay.

CGTH-W-1 = assay type: functional, cell-based, Homo sapiens; conditions: Homo sapiens, CGTH-W-1;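 further: growth inhibition of human CGTH-W-1 cells measured by cell viability assay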
Description: SANGER: Inhibition of human CGTH-W-1 cell growth in a cell viability assay.

A388 = assay type: functional, cell-based, Homo sapiens; conditions: Homo sapiens, A388;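 further: growth inhibition of human A388 cells, read out with a cell viability assay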
Description: SANGER: Inhibition of human A388 cell growth in a cell viability assay.

DMS-79 = assay type: functional, cell-based; conditions: Homo sapiens;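 further: growth inhibition measured with a cell viability assay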
Description: SANGER: Inhibition of human DMS-79 cell growth in a cell viability assay.

PFSK-1 = assay type: functional, cell-based, Homo sapiens; conditions: Homo sapiens, PFSK-1;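 further: cell viability assay measuring how strongly compounds suppress growth of human PFSK-1 cells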
Description: SANGER: Inhibition of human PFSK-1 cell growth in a cell viability assay.

HuP-T3 = assay type: functional, cell-based, Homo sapiens; conditions: Homo sapiens, HuP-T3;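 further: HuP-T3 cell growth inhibition, read out with a cell viability assay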
Description: SANGER: Inhibition of human HuP-T3 cell growth in a cell viability assay.

LOX IMVI = assay type: functional, cell-based; conditions: Homo sapiens
Description: SANGER: Inhibition of human LOXIMVI cell growth in a cell viability assay.

MHH-PREB-1 = assay type: functional, cell-based; conditions: Homo sapiens;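 further: cell viability assay measuring inhibition of proliferation of human MHH-PREB-1 cells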
Description: SANGER: Inhibition of human MHH-PREB-1 cell growth in a cell viability assay.

EW-13 = assay type: functional, cell-based; conditions: Homo sapiens;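 further: growth inhibition of EW-13 cells, read out with a cell viability assay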
Description: SANGER: Inhibition of human EW-13 cell growth in a cell viability assay.

MKN-7 = assay type: functional, cell-based, Homo sapiens; conditions: Homo sapiens, MKN-7;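 further: growth inhibition of MKN-7 cells, read out with a cell viability assay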
Description: SANGER: Inhibition of human MKN7 cell growth in a cell viability assay.

JVM-2 = assay type: functional, cell-based; conditions: Homo sapiens;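 further: growth inhibition of JVM-2 cells determined by a cell viability assay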
Description: SANGER: Inhibition of human JVM-2 cell growth in a cell viability assay.

TE-6 = assay type: functional, cell-based, Homo sapiens; conditions: Homo sapiens, TE-6;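 further: growth inhibition of TE-6 cells, read out with a cell viability assay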
Description: SANGER: Inhibition of human TE-6 cell growth in a cell viability assay.

EM-2 = assay type: functional, cell-based; conditions: Homo sapiens;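 further: growth inhibition of EM-2 cells, read out with a cell viability assay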
Description: SANGER: Inhibition of human EM-2 cell growth in a cell viability assay.

HN = assay type: functional, cell-based, Homo sapiens; conditions: Homo sapiens, HN
Description: SANGER: Inhibition of human HN cell growth in a cell viability assay.

HCC70 = assay type: functional, cell-based, Homo sapiens; conditions: Homo sapiens, HCC70;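 further: cell viability assay measuring how strongly the compound suppresses proliferation of HCC70 cells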
Description: SANGER: Inhibition of human HCC70 cell growth in a cell viability assay.

AGS = assay type: functional, cell-based, Homo sapiens; conditions: Homo sapiens, AGS;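 further: growth inhibition of AGS cells, determined with a cell viability assay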
Description: SANGER: Inhibition of human AGS cell growth in a cell viability assay.

NCI-H1693 = assay type: functional, cell-based, Homo sapiens; conditions: Homo sapiens, NCI-H1693;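 further: growth inhibition of the human cell line, read out with a cell viability assay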
Description: SANGER: Inhibition of human NCI-H1693 cell growth in a cell viability assay.

ChaGo-K-1 = assay type: functional, cell-based; conditions: Homo sapiens;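 further: growth inhibition of ChaGo-K-1 cells, read out with a cell viability assay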
Description: SANGER: Inhibition of human ChaGo-K-1 cell growth in a cell viability assay.

SW 954 = assay type: functional, cell-based, Homo sapiens; conditions: Homo sapiens, SW 954;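 further: growth inhibition of SW954 human cancer cells, read out as cell viability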
Description: SANGER: Inhibition of human SW954 cell growth in a cell viability assay.

NB5 = assay type: functional, cell-based, Homo sapiens; conditions: Homo sapiens, NB5;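 further: growth inhibition of NB5 cells, read out as cell viability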
Description: SANGER: Inhibition of human NB5 cell growth in a cell viability assay.

HuP-T4 = assay type: functional, cell-based, Homo sapiens; conditions: Homo sapiens, HuP-T4;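 further: cell viability assay measuring how much HuP-T4 cell growth is inhibited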
Description: SANGER: Inhibition of human HuP-T4 cell growth in a cell viability assay.

COLO-668 = assay type: functional, cell-based, Homo sapiens; conditions: Homo sapiens, COLO-668
Description: SANGER: Inhibition of human COLO-668 cell growth in a cell viability assay.

RCM-1 = assay type: functional, cell-based, Homo sapiens; conditions: Homo sapiens, RCM-1;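 further: growth inhibition of the RCM-1 line, determined with a cell viability readout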
Description: SANGER: Inhibition of human RCM-1 cell growth in a cell viability assay.

ACHN = assay type: functional, cell-based, Homo sapiens; conditions: Homo sapiens, ACHN;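 further: cell viability read-out used to gauge how strongly growth of human ACHN cells is suppressed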
Description: SANGER: Inhibition of human ACHN cell growth in a cell viability assay.

ALL-PO = assay type: functional, cell-based; conditions: Homo sapiens;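 further: growth inhibition of ALL-PO cells, read out by a cell viability assay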
Description: SANGER: Inhibition of human ALL-PO cell growth in a cell viability assay.

C=CCc1cccc(/C=N/NC(=O)CN2CCN(Cc3ccccc3)CC2)c1O [PAC-1]
IC50 (HGC-27): > 2.56 µM
IC50 (LC-2-ad): 0.898 µM
IC50 (J82): > 2.56 µM
IC50 (MZ7-mel): 2.56 µM
IC50 (NTERA-2-cl-D1): > 2.56 µM
IC50 (ES6): 1.49 µM
IC50 (SCC-15): > 2.56 µM
IC50 (DU-4475): 1.91 µM
IC50 (TYK-nu): > 2.56 µM
IC50 (MDA-MB-361): > 2.56 µM
IC50 (LK-2): > 2.56 µM
IC50 (SW1990): > 2.56 µM
IC50 (A-375): 0.869 µM
IC50 (BV-173): > 2.56 µM
IC50 (NCI-H1648): > 2.56 µM
IC50 (MZ2-MEL): > 2.56 µM
IC50 (NCI-H1623): > 2.56 µM
IC50 (SW-620): > 2.56 µM
IC50 (TE-8): > 2.56 µM
IC50 (KY821): > 2.56 µM
IC50 (SW1417): > 2.56 µM
IC50 (HL-60): > 2.56 µM
IC50 (CAMA-1): > 2.56 µM
IC50 (HT-1376): > 2.56 µM
IC50 (DOHH-2): > 2.56 µM
IC50 (VMRC-RCZ): > 2.56 µM
IC50 (ONS-76): > 2.56 µM
IC50 (LS-411N): 2.08 µM
IC50 (8-MG-BA): > 2.56 µM
IC50 (CGTH-W-1): > 2.56 µM
IC50 (A388): > 2.56 µM
IC50 (DMS-79): > 2.56 µM
IC50 (PFSK-1): > 2.56 µM
IC50 (HuP-T3): > 2.56 µM
IC50 (LOX IMVI): > 2.56 µM
IC50 (MHH-PREB-1): > 2.56 µM
IC50 (EW-13): > 2.56 µM
IC50 (MKN-7): > 2.56 µM
IC50 (JVM-2): > 2.56 µM
IC50 (TE-6): > 2.56 µM
IC50 (EM-2): > 2.56 µM
IC50 (HN): > 2.56 µM
IC50 (HCC70): > 2.56 µM
IC50 (AGS): > 2.56 µM
IC50 (NCI-H1693): > 2.56 µM
IC50 (ChaGo-K-1): > 2.56 µM
IC50 (SW 954): > 2.56 µM
IC50 (NB5): > 2.56 µM
IC50 (HuP-T4): > 2.56 µM
IC50 (COLO-668): > 2.56 µM
IC50 (RCM-1): > 2.56 µM
IC50 (ACHN): 1.69 µM
IC50 (ALL-PO): > 2.56 µM

CC(=O)O[C@@]12CO[C@@H]1C[C@H](O)[C@@]1(C)C(=O)[C@H](O)C3=C(C)[C@@H](OC(=O)[C@H](O)[C@@H](NC(=O)OC(C)(C)C)c4ccccc4)C[C@@](O)([C@@H](OC(=O)c4ccccc4)[C@H]21)C3(C)C [DOCETAXEL]
IC50 (HGC-27): 0.000471 µM
IC50 (LC-2-ad): 0.0034 µM
IC50 (J82): > 0.01 µM
IC50 (MZ7-mel): > 0.01 µM
IC50 (NTERA-2-cl-D1): 0.000773 µM
IC50 (ES6): > 0.01 µM
IC50 (SCC-15): 0.00689 µM
IC50 (DU-4475): 0.00302 µM
IC50 (TYK-nu): 0.00232 µM
IC50 (MDA-MB-361): 0.00281 µM
IC50 (LK-2): 0.00121 µM
IC50 (SW1990): > 0.01 µM
IC50 (A-375): 0.00121 µM
IC50 (BV-173): 0.0053 µM
IC50 (NCI-H1648): 0.00601 µM
IC50 (MZ2-MEL): 0.00658 µM
IC50 (NCI-H1623): 0.00856 µM
IC50 (SW-620): 0.00397 µM
IC50 (TE-8): 0.000366 µM
IC50 (KY821): 0.00551 µM
IC50 (SW1417): 0.00276 µM
IC50 (HL-60): 0.00359 µM
IC50 (CAMA-1): 0.00131 µM
IC50 (HT-1376): > 0.01 µM
IC50 (DOHH-2): 0.0063 µM
IC50 (VMRC-RCZ): 0.00252 µM
IC50 (ONS-76): 0.00322 µM
IC50 (LS-411N): 0.00314 µM
IC50 (8-MG-BA): 0.000589 µM
IC50 (CGTH-W-1): 0.000542 µM
IC50 (A388): 0.00265 µM
IC50 (DMS-79): > 0.01 µM
IC50 (PFSK-1): 0.000657 µM
IC50 (HuP-T3): > 0.01 µM
IC50 (LOX IMVI): 0.00116 µM
IC50 (MHH-PREB-1): 0.00189 µM
IC50 (EW-13): > 0.01 µM
IC50 (MKN-7): > 0.01 µM
IC50 (JVM-2): > 0.01 µM
IC50 (TE-6): > 0.01 µM
IC50 (EM-2): 0.00623 µM
IC50 (HN): 0.000758 µM
IC50 (HCC70): 0.00277 µM
IC50 (AGS): 0.00328 µM
IC50 (NCI-H1693): > 0.01 µM
IC50 (ChaGo-K-1): 0.00988 µM
IC50 (SW 954): 0.000823 µM
IC50 (NB5): > 0.01 µM
IC50 (HuP-T4): 0.00679 µM
IC50 (COLO-668): > 0.01 µM
IC50 (RCM-1): > 0.01 µM
IC50 (ACHN): > 0.01 µM
IC50 (ALL-PO): 0.0086 µM

CCC1=C[C@@H]2CN(C1)Cc1c([nH]c3ccccc13)[C@@](C(=O)OC)(c1cc3c(cc1OC)N(C)[C@H]1[C@@](O)(C(=O)OC)[C@H](OC(C)=O)[C@]4(CC)C=CCN5CC[C@]31[C@@H]54)C2 [VINORELBINE]
IC50 (HGC-27): 0.00185 µM
IC50 (LC-2-ad): 0.00498 µM
IC50 (J82): > 0.064 µM
IC50 (MZ7-mel): 0.0102 µM
IC50 (NTERA-2-cl-D1): 0.000939 µM
IC50 (ES6): 0.0424 µM
IC50 (SCC-15): 0.0087 µM
IC50 (DU-4475): 0.0481 µM
IC50 (TYK-nu): > 0.064 µM
IC50 (MDA-MB-361): 0.00976 µM
IC50 (LK-2): 0.0125 µM
IC50 (SW1990): > 0.064 µM
IC50 (A-375): 0.0382 µM
IC50 (BV-173): 0.0304 µM
IC50 (NCI-H1648): 0.00392 µM
IC50 (MZ2-MEL): 0.043 µM
IC50 (NCI-H1623): 0.0285 µM
IC50 (SW-620): 0.00852 µM
IC50 (TE-8): 0.046 µM
IC50 (KY821): > 0.064 µM
IC50 (SW1417): > 0.064 µM
IC50 (HL-60): > 0.064 µM
IC50 (CAMA-1): 0.0456 µM
IC50 (HT-1376): 0.0315 µM
IC50 (DOHH-2): 0.00504 µM
IC50 (VMRC-RCZ): 0.0188 µM
IC50 (ONS-76): 0.0033 µM
IC50 (LS-411N): 0.00317 µM
IC50 (8-MG-BA): 0.00337 µM
IC50 (CGTH-W-1): 0.000232 µM
IC50 (A388): 0.00607 µM
IC50 (DMS-79): > 0.064 µM
IC50 (PFSK-1): 0.0205 µM
IC50 (HuP-T3): > 0.064 µM
IC50 (LOX IMVI): > 0.064 µM
IC50 (MHH-PREB-1): 0.00688 µM
IC50 (EW-13): 0.00662 µM
IC50 (MKN-7): > 0.064 µM
IC50 (JVM-2): > 0.064 µM
IC50 (TE-6): > 0.064 µM
IC50 (EM-2): 0.0448 µM
IC50 (HN): > 0.064 µM
IC50 (HCC70): 0.0306 µM
IC50 (AGS): 0.00646 µM
IC50 (NCI-H1693): > 0.064 µM
IC50 (ChaGo-K-1): 0.00669 µM
IC50 (SW 954): 0.00598 µM
IC50 (NB5): > 0.064 µM
IC50 (HuP-T4): 0.0373 µM
IC50 (COLO-668): 0.0285 µM
IC50 (RCM-1): > 0.064 µM
IC50 (ACHN): 0.0458 µM
IC50 (ALL-PO): 0.00336 µM
